From patent US20100056519A1, “COMPOSITION AND METHOD FOR REDUCING PLATELET ACTIVATION AND FOR THE TREATMENT OF THROMBOTIC EVENTS” (priority 2008, published 2010)

How the values were obtained:
Assay type in all cases: cell-based, human
platelets = test: Whole blood (impedance) aggregation with 1 μg/ml collagen; conditions: Mean ± SD
Procedure: (§1) The methodology employed was conventional aggregation induced by 5 μM ADP, 1 μg/ml collagen, 10 μM TRAP, whole blood aggregation with 1 μg/ml collagen, Ultegra, and PFA-100 Analyzers, expression of 14 intact, and TRAP-stimulated major receptors by whole blood flow cytometry were utilized to assess platelet activity after preincubation with escalating concentrations of E5555 (20 ng/ml, 50 ng/ml, and 100 ng/ml). The experiments were performed in healthy volunteers, CAD patients treated with ASA, and CAD patients treated with ASA and clopidogrel combination (n=10, for each group).
(§2) An Informed Consent was obtained from all volunteers. Drug users were excluded from data analysis. The study was approved by Quorum Institutional Review Board. All subjects underwent blood sampling after at least 30 minutes of rest and two or more hours of fasting. Blood (28 ml) was drawn between 8 and 10 a.m. in order to avoid any diurnal influence and sampled from an antecubital vein using a 21-gauge butterfly needle containing 3.2% sodium citrate (1:9 volume) after having discarded the first 1.5 ml of free running blood. Four Vacutainer tubes (7.0 ml) were collected for a total of 28 ml of whole blood-citrate mixture from each study participant. Chronologically, blood samples were delivered to the core laboratory facility within 45 minutes after drawing. Then all tubes of blood-citrate mixture were pooled. One portion of pooled blood (5 ml) was kept as an internal control and pretreated with the vehicle. The remaining blood (23 ml) was used for the in vitro exposure to E5555 at concentrations of 20 ng/ml, 50 ng/ml, and 100 ng/ml. […] The platelet aggregation studies, Rapid Analyzers measures, and flow cytometry preparations were initiated within no more than 110 minutes following the blood draw, incubation with the drug, and preparation of the samples.
Whole blood aggregation was determined using a Chronolog device 592A. The whole blood-citrate mixture was diluted 1:1 with 0.5 ml phosphate buffered saline and gently swirled. The sample then was allowed to warm to 37° C. for 5 minutes then transferred to the assay well. The electrode was then placed in the cuvette and the sample was stimulated with 1 μg/ml collagen. The change in electrical impedance was digitally recorded. Each whole blood sample was analyzed utilizing 2 different clinical devices: • (1) a Rapid Platelet-Function Assay (Ultegra®) (Accumetrics, Inc., San Diego, Calif.), which is a rapid platelet-function assay aspirin cartridge test with TRAP used as agonist. Polystyrene beads coated with fibrinogen are placed in a cartridge along with the peptide that activates thrombin receptor. Anticoagulated whole blood was added to the cartridge, and agglutination between platelets and coated beads was recorded. The data mirrors turbidimetric platelet aggregation and presumably reflects platelet glycoprotein IIb/IIIa blockade. Ultegra RPFA-TRAP Assay results were reported as Platelet Activation Units (PAU); and • (2) Platelet-Function Analyzer PFA-100 ™ (Dade Behring, Deerfield Ill.), which is a high shear-inducing analyzer that simulates primary hemostasis after injury to a small vessel under flow conditions. The device provides a constant negative pressure that aspirates whole blood, which comes into contact with the collagen, coated membrane and then passes through the aperture. The time required to obtain occlusion of the aperture is digitally recorded. The time to aperture occlusion (the closure time) is recorded in seconds and is inversely related to the degree of shear-induced platelet activation. We used ADP/Collagen cartridges in the index study. Both PFA-100 and Ultegra assays were performed in duplicate. An electronic quality control test was performed on each instrument daily prior to performing any patient samples.

PECAM-1 (CD31) = test: Unstimulated whole blood flow cytometry, PECAM-1; conditions: for PECAM-1 (CD31), Mean Fluorescence Intensity: unstimulated, Mean ± SD
Procedure: as §1, §2
(§3) Formation of platelet-leukocyte aggregates was assessed by dual labeling with pan-platelet marker (CD151), and then with CD14, the macrophage receptor for endotoxin lipopolysaccharides (PharMingen, and Coulter, San Diego, Calif., USA). The tubes were then covered with aluminum foil and incubated at 37° C. for 40 minutes with gentle rotation. After incubation, samples were immediately analyzed on a Becton Dickinson FACScan flow cytometer. The instrument was set up to measure forward light scatter, and FITC fluorescence. All parameters were collected using four-decade logarithmic amplification. The data was retrieved in list mode files and then analyzed. P selectin was expressed as percent positive cells. Other antigens were expressed as log mean fluorescence intensity.

CD-40L (CD154) [1] = test: Unstimulated whole blood flow cytometry, CD40-ligand; conditions: for CD-40L (CD154), Mean Fluorescence Intensity: unstimulated, Mean ± SD
Procedure: as §1, §2, §3

GPIb (CD42b) = test: TRAP-stimulated whole blood flow cytometry, GPIb; conditions: Mean ± SD
Procedure: as §1, §2, §3
(§4) For flow cytometry (TRAP-stimulated) all of the above flow cytometry experiments were identically repeated utilizing prestimulation with 10 μmol/L TRAP for 5 minutes at 37° C. To determine statistics, a Paired Sign Test was used to define significance of differences between vehicle and E5555-treated groups. The Mann-Whitney U test was used to analyze nonparametric data. Normally distributed data were expressed as mean±standard error (m±SE), and skewed data as median (range). All P-values were two sided. All analysis was performed using the SPSS v9.0 program (SPSS Inc., Chicago, Ill.).

CD-40L (CD154) [2] = test: TRAP-stimulated whole blood flow cytometry, CD40-ligand; conditions: Mean ± SD
Procedure: as §1, §2, §3, §4

[3] = overall summary, stimulation not stated
[4] = E5555 20 ng/ml, Patients (ASA + C)
[5] = E5555 50 ng/ml, Patients (ASA + C)
[6] = E5555 100 ng/ml, Patients (ASA + C)
[7] = E5555 100 ng/ml, Patients (ASA)

Question: With `Br.CCOc1cc2c(c(F)c1OCC)C(=N)N(CC(=O)c1cc(N3CCOCC3)c(OC)c(C(C)(C)C)c1)C2` [E5555, 1-(3-tert-butyl-4-methoxy-5-morpholinophenyl)-2-(5,6-diethoxy-7-fluoro-1-imino-1,3-dihydro-2H-isoindol-2-yl)ethanone hydrobromide] as the compound, how does the “Platelet Aggregation, Whole Blood Collagen 1 μg/mL” value (“Platelet Aggregation” below) (platelets; E5555 20 ng/ml, CAD patients treated with ASA + clopidogrel) read?
Answer: 13 ± 5 ohms

Question: And the “Platelet Aggregation” value (platelets; E5555 20 ng/ml, CAD patients treated with ASA)?
Answer: 11 ± 4 ohms

Question: And the “Platelet Aggregation” value (platelets; E5555 20 ng/ml, healthy volunteers)?
Answer: 22 ± 5 ohms

Question: What about the “Platelet Aggregation” value (platelets; E5555 50 ng/ml, CAD patients treated with ASA + clopidogrel) of the same compound?
Answer: 12 ± 7 ohms

Question: And the “Platelet Aggregation” value (platelets; E5555 50 ng/ml, CAD patients treated with ASA)?
Answer: 14 ± 6 ohms

Question: What about the “Platelet Aggregation” value (platelets; E5555 50 ng/ml, healthy volunteers) of the same compound?
Answer: 25 ± 7 ohms

Question: What about the “Platelet Aggregation” value (platelets; E5555 100 ng/ml, CAD patients treated with ASA + clopidogrel) of the same compound?
Answer: 14 ± 4 ohms

Question: What about the “Platelet Aggregation” value (platelets; E5555 100 ng/ml, CAD patients treated with ASA) of the same compound?
Answer: 12 ± 5 ohms

Question: And the “Platelet Aggregation” value (platelets; E5555 100 ng/ml, healthy volunteers)?
Answer: 22 ± 6 ohms

Question: And the “PECAM-1 expression, effect in words” value (PECAM-1 (CD31); [3])?
Answer: significant reduction

Question: And the “PECAM-1 (CD31), Mean Fluorescence Intensity” value (from here on “PECAM-1 (CD31)”) (PECAM-1 (CD31); [4])?
Answer: 55 ± 11 MFI

Question: What about the “PECAM-1 (CD31)” value (PECAM-1 (CD31); E5555 20 ng/ml, Patients (ASA)) of the same compound?
Answer: 52 ± 9 MFI

Question: What about the “PECAM-1 (CD31)” value (PECAM-1 (CD31); E5555 20 ng/ml, Volunteers) of the same compound?
Answer: 64 ± 10 MFI

Question: What about the “PECAM-1 (CD31)” value (PECAM-1 (CD31); [5]) of the same compound?
Answer: 51 ± 9 MFI

Question: What about the “PECAM-1 (CD31)” value (PECAM-1 (CD31); E5555 50 ng/ml, Patients (ASA)) of the same compound?
Answer: 53 ± 7 MFI

Question: What about the “PECAM-1 (CD31)” value (PECAM-1 (CD31); E5555 50 ng/ml, Volunteers) of the same compound?
Answer: 60 ± 8 MFI

Question: What about the “PECAM-1 (CD31)” value (PECAM-1 (CD31); [6]) of the same compound?
Answer: 54 ± 8 MFI

Question: And the “PECAM-1 (CD31)” value (PECAM-1 (CD31); [7])?
Answer: 57 ± 10 MFI

Question: What about the “PECAM-1 (CD31)” value (PECAM-1 (CD31); E5555 100 ng/ml, Volunteers) of the same compound?
Answer: 64 ± 11 MFI

Question: And the “CD40-ligand, effect in words” value (CD-40L (CD154) [1]; [3])?
Answer: not affected

Question: And the “CD-40L (CD154), Mean Fluorescence Intensity” value (“CD-40L (CD154)” for short) (CD-40L (CD154) [1]; [4])?
Answer: 5.1 ± 1.0 MFI

Question: What about the “CD-40L (CD154)” value (CD-40L (CD154) [1]; E5555 20 ng/ml, Patients (ASA)) of the same compound?
Answer: 5.0 ± 1.0 MFI

Question: What about the “CD-40L (CD154)” value (CD-40L (CD154) [1]; E5555 20 ng/ml, Volunteers) of the same compound?
Answer: 5.4 ± 0.8 MFI

Question: And the “CD-40L (CD154)” value (CD-40L (CD154) [1]; [5])?
Answer: 5.2 ± 0.7 MFI

Question: And the “CD-40L (CD154)” value (CD-40L (CD154) [1]; E5555 50 ng/ml, Patients (ASA))?
Answer: 5.2 ± 0.8 MFI

Question: What about the “CD-40L (CD154)” value (CD-40L (CD154) [1]; E5555 50 ng/ml, Volunteers) of the same compound?
Answer: 5.3 ± 0.5 MFI

Question: What about the “CD-40L (CD154)” value (CD-40L (CD154) [1]; [6]) of the same compound?
Answer: 5.3 ± 1.3 MFI

Question: And the “CD-40L (CD154)” value (CD-40L (CD154) [1]; [7])?
Answer: 5.1 ± 1.0 MFI

Question: What about the “CD-40L (CD154)” value (CD-40L (CD154) [1]; E5555 100 ng/ml, Volunteers) of the same compound?
Answer: 5.0 ± 0.9 MFI

Question: What about the “GPIb (CD42b), Mean Fluorescence Intensity” value (shortened to “GPIb (CD42b)”) (GPIb (CD42b); [4]) of the same compound?
Answer: 105 ± 14 MFI

Question: What about the “GPIb (CD42b)” value (GPIb (CD42b); E5555 20 ng/ml, Patients (ASA)) of the same compound?
Answer: 102 ± 9 MFI

Question: And the “GPIb (CD42b)” value (GPIb (CD42b); E5555 20 ng/ml, Volunteers)?
Answer: 134 ± 17 MFI

Question: What about the “GPIb (CD42b)” value (GPIb (CD42b); [5]) of the same compound?
Answer: 102 ± 19 MFI

Question: And the “GPIb (CD42b)” value (GPIb (CD42b); E5555 50 ng/ml, Patients (ASA))?
Answer: 104 ± 17 MFI

Question: What about the “GPIb (CD42b)” value (GPIb (CD42b); E5555 50 ng/ml, Volunteers) of the same compound?
Answer: 125 ± 24 MFI

Question: And the “GPIb (CD42b)” value (GPIb (CD42b); [6])?
Answer: 137 ± 18 MFI

Question: And the “GPIb (CD42b)” value (GPIb (CD42b); [7])?
Answer: 100 ± 14 MFI

Question: What about the “GPIb (CD42b)” value (GPIb (CD42b); E5555 100 ng/ml, Volunteers) of the same compound?
Answer: 150 ± 26 MFI

Question: And the “CD-40L (CD154)” value (CD-40L (CD154) [2]; [4])?
Answer: 4.9 ± 0.5 MFI

Question: What about the “CD-40L (CD154)” value (CD-40L (CD154) [2]; E5555 20 ng/ml, Patients (ASA)) of the same compound?
Answer: 5.2 ± 0.4 MFI

Question: And the “CD-40L (CD154)” value (CD-40L (CD154) [2]; E5555 20 ng/ml, Volunteers)?
Answer: 6.3 ± 0.6 MFI

Question: And the “CD-40L (CD154)” value (CD-40L (CD154) [2]; [5])?
Answer: 4.0 ± 0.3 MFI

Question: And the “CD-40L (CD154)” value (CD-40L (CD154) [2]; E5555 50 ng/ml, Patients (ASA))?
Answer: 4.8 ± 0.5 MFI

Question: And the “CD-40L (CD154)” value (CD-40L (CD154) [2]; E5555 50 ng/ml, Volunteers)?
Answer: 5.7 ± 0.6 MFI

Question: What about the “CD-40L (CD154)” value (CD-40L (CD154) [2]; [6]) of the same compound?
Answer: 4.7 ± 0.5 MFI

Question: And the “CD-40L (CD154)” value (CD-40L (CD154) [2]; [7])?
Answer: 5.0 ± 0.8 MFI

Question: And the “CD-40L (CD154)” value (CD-40L (CD154) [2]; E5555 100 ng/ml, Volunteers)?
Answer: 5.7 ± 0.4 MFI
